Reference: US8258138B2, “Potassium channel blockers” (Xention Limited, priority 2008, dated 2012)

How the values were obtained:
human Kv1.3 = target: T1, human Kv1.3 (Homo sapiens, UniProt P22001); assay: Kv1.3 Autopatch electrophysiology (whole cell patch-clamp, inhibition of charge movement); format: cell-based; details: compound at 1 μM; cells stably transfected with human Kv1.3; room temperature; total charge during step to +30 mV relative to control; read-out: hKv1.3 % inh.
T1 construct: expressed in transfected cells; host or cells: stably transfected cells grown in medium for CHO cells
Summary of the method: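 Whole-cell AutoPatch recordings were made at room temperature from cells held at −80 mV, with 500 ms steps to +30 mV every 15 s. The bath contained 10 mM KCl, pH 7.4, and the pipette K-gluconate/EGTA, pH 7.2.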

hKv1.5 = hKv1.5 (Homo sapiens, UniProt P22460); assay: Kv1.5 Autopatch electrophysiology (whole cell patch-clamp); format: cell-based; details: compound at 1 μM; room temperature (22-24° C.); total charge during step to 0 mV; read-out: hKv1.5 % inh.
Protocol: Kv1.5 Autopatch Electrophysiology Method
The external bathing solution contained (in mM): 150 NaCl, 10 KCl, […], 3 MgCl2, 1 CaCl2, 10 HEPES, pH 7.4. Patch pipettes were filled with an electrode solution of composition (in mM): 160 KCl, 0.5 MgCl2, 10 HEPES, 1 EGTA, pH 7.4 with KOH.
Compounds were dissolved in DMSO (100%) and made up in the external bather at a concentration of 1 μM. All experiments were conducted at room temperature (22-24° C.).
A cell suspension (10 ml), with a density of 100,000 cells/ml, was aliquoted into a 15 ml centrifuge tube and transferred to an incubator (37° C., 5% CO2) for approximately one hour before use. Following 60 min incubation, a tube was taken and centrifuged at 1000 rpm for 4 mins at room temperature. 9.5 ml supernatant was thence discarded, leaving a cell pellet at the bottom of the tube. The pellet was then resuspended using 100 μl of cold (4° C.), filtered (0.22 μm), 0.2% BSA/bather solution (0.02 g BSA/10 ml bather). The bottom of the tube was manually agitated gently until the solution became cloudy with cells. The 100 μl cell resuspension solution was then stored on the bench at 4° C. (using a Peltier-based temperature control device) until used.
A length of capillary glass (1B150F-4, WPI) was dipped into the cell suspension solution, such that ˜3 cm column of fluid was taken up by capillary action. A Ag/AgCl wire was dropped into the non-dipped end of the capillary also. The outside of the solution-filled end of the capillary was then dried and the capillary was loaded into the AutoPatch™.
Borosilicate glass patch pipettes (from 1.5 mm OD, thin-walled filamented, GC150-TF capillary glass, Harvard) were pulled using a DMZ pipette puller (Zeitz Instruments), and were back-filled using the internal pipette solution, being careful that no bubbles remain at the tip or in the body of the pipette. Patch pipettes typically had resistances of 2.3-3.5 MΩ. Once filled, the pipette tip and a proportion of the shaft (˜15 mm) were dipped into Sigmacote (Sigma). The recording pipette was then loaded into the AutoPatch™ Automated patch-clamping was initiated by the operator, but thereafter AutoPatch.exe continued the experiment providing that pre-set conditions and criteria were satisfied.
Whole cell patch-clamp recordings were made using the AutoPatch™ rig, which incorporated an EPC9 amplifier (HEKA, Germany) under control of Pulse software (v8.54, HEKA, Germany), a motion controller with 2 translators (Newport, UK), valve controller (VF1) and a c-level suction device all at room temperature (22-24° C.). This equipment was completely under the control of AutoPatch.exe and operator intervention was only made when there was a requirement to refill the drug reservoirs or to prevent the loss of a cell due to a technical error. Cells with an Rseries greater than 18 MΩ were discounted from the experiment.
Qualification stages prior to perfusion and drug application ensured that the observed current met the criteria for the experiment. Only those cells with an IK>500 pA were used for experiments. Cells were continuously perfused with external solution at a flow rate of 1.8-2 ml/minute. […] Online analysis of the hKv1.5 current during the application of compounds was performed by the AutoPatch™ software. Voltage-step protocols and analysis of data was performed as described for conventional electrophysiology.
Electrophysiology voltage-step protocols and analysis of data was performed as follows. Data was sampled at 5 kHz, and filtered with a −3 dB bandwidth of 2.5 kHz. Cells were held at a voltage of −80 mV. Currents were evoked to a voltage step for 1000 ms in duration at 0 mV every 5 s. Currents were analysed using Pulsefit software (v8.54, HEKA, Germany), with the total charge measured during the whole of the voltage step. All other plots were produced using Igor Pro (WaveMetrics).

T1 sequence (P22001 whole entry): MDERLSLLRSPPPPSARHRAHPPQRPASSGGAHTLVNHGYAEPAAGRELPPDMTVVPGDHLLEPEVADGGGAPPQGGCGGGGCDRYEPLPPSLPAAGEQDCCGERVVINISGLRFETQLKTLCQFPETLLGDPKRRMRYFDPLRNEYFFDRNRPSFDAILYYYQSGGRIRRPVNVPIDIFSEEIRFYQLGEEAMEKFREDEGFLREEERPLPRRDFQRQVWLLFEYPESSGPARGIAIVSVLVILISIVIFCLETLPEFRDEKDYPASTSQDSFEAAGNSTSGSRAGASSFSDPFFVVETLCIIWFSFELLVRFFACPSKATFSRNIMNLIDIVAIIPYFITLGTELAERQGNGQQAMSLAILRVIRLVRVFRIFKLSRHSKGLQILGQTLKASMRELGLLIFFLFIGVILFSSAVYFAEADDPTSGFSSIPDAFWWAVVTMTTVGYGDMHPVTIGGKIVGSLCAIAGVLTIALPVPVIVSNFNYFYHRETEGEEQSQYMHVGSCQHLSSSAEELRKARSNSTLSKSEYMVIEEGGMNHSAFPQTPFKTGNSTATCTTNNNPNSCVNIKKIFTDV
Sequence of hKv1.5 (P22460 whole entry): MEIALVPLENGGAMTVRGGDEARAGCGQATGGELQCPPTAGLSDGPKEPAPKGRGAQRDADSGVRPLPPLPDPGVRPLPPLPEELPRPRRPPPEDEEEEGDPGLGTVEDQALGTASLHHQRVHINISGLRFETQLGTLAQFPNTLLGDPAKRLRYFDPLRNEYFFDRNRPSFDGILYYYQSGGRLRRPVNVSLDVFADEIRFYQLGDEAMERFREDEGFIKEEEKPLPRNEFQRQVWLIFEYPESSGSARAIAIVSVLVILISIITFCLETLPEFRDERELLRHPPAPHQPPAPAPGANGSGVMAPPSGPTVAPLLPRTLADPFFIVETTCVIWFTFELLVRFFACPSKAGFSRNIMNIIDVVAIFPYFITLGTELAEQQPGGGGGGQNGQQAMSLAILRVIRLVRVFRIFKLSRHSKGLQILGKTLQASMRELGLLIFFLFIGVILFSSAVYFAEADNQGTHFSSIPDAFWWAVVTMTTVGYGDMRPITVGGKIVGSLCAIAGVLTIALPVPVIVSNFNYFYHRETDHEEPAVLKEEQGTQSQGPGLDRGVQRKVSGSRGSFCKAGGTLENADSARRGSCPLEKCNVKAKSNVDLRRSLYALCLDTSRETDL

Compound: Cc1ccccc1S(=O)(=O)N(Cc1ccccc1)c1ccc(C(=O)N2CCN(c3ccccc3)CC2)cc1 [Example 26, N-Benzyl-2-methyl-N-[4-(4-phenyl-piperazine-1-carbonyl)-phenyl]-benzenesulfonamide]
- inhibition at 1 µM (human Kv1.3): 82%
- inhibition at 1 µM (hKv1.5): 85.5%

Compound: COc1cccc(S(=O)(=O)N(Cc2ccccc2)c2ccc(C(=O)N3CCN(c4ccccc4)CC3)cc2)c1 [Example 28, N-Benzyl-3-methoxy-N-[4-(4-phenyl-piperazine-1-carbonyl)-phenyl]-benzenesulfonamide]
- inhibition at 1 µM (human Kv1.3): 74%
- inhibition at 1 µM (hKv1.5): 81.2%

Compound: O=C(c1ccc(N(Cc2ccccc2)S(=O)(=O)c2cc(Cl)cc(Cl)c2)cc1)N1CCN(c2ccccc2)CC1 [Example 29, N-Benzyl-3,5-dichloro-N-[4-(4-phenyl-piperazine-1-carbonyl)-phenyl]-benzenesulfonamide]
- inhibition at 1 µM (human Kv1.3): 70%
- inhibition at 1 µM (hKv1.5): 75.3%

Compound: O=C(c1ccc(N(Cc2ccccc2)S(=O)(=O)c2cccc(Cl)c2)cc1)N1CCN(c2ccccc2)CC1 [Example 30, N-Benzyl-3-chloro-N-[4-(4-phenyl-piperazine-1-carbonyl)-phenyl]-benzenesulfonamide]
- inhibition at 1 µM (human Kv1.3): 92%
- inhibition at 1 µM (hKv1.5): 85.6%

Compound: O=C(c1ccc(N(Cc2cccc(F)c2)S(=O)(=O)c2ccccc2)cc1)N1CCN(c2ccccc2)CC1 [Example 31, N-(3-Fluoro-benzyl)-N-[4-(4-phenyl-piperazine-1-carbonyl)-phenyl]-benzenesulfonamide]
- inhibition at 1 µM (human Kv1.3): 67%
- inhibition at 1 µM (hKv1.5): 61.6%

Compound: COc1ccccc1CN(c1ccc(C(=O)N2CCN(c3ccccc3)CC2)cc1)S(=O)(=O)c1ccccc1 [Example 32, N-(2-Methoxy-benzyl)-N-[4-(4-phenyl-piperazine-1-carbonyl)-phenyl]-benzenesulfonamide]
- inhibition at 1 µM (human Kv1.3): 68%
- inhibition at 1 µM (hKv1.5): 44.2%

Compound: COc1cccc(CN(c2ccc(C(=O)N3CCN(c4ccccc4)CC3)cc2)S(=O)(=O)c2ccccc2)c1 [Example 33, N-(3-Methoxy-benzyl)-N-[4-(4-phenyl-piperazine-1-carbonyl)-phenyl]-benzenesulfonamide]
- inhibition at 1 µM (human Kv1.3): 56%
- inhibition at 1 µM (hKv1.5): 55.7%

Compound: Cc1ccc(CN(c2ccc(C(=O)N3CCN(c4ccccc4)CC3)cc2)S(=O)(=O)c2ccccc2)cc1 [Example 35, N-(4-Methyl-benzyl)-N-[4-(4-phenyl-piperazine-1-carbonyl)-phenyl]-benzenesulfonamide]
- inhibition at 1 µM (human Kv1.3): 56%
- inhibition at 1 µM (hKv1.5): 68.9%

Compound: CC1(C)CCc2cc(S(=O)(=O)N(Cc3ccccc3)c3ccc(C(=O)N4CCN(c5ccccc5)CC4)cc3)ccc2O1 [Example 39, 2,2-Dimethyl-chroman-6-sulfonic acid benzyl-[4-(4-phenyl-piperazine-1-carbonyl)-phenyl]-amide]
- inhibition at 1 µM (human Kv1.3): 47%
- inhibition at 1 µM (hKv1.5): 58.9%

Compound: O=C(c1ccc(N(Cc2ccccc2)S(=O)(=O)c2ccc([N+](=O)[O-])cc2)cc1)N1CCN(c2ccccc2)CC1 [Example 40, N-Benzyl-4-nitro-N-[4-(4-phenyl-piperazine-1-carbonyl)-phenyl]-benzenesulfonamide]
- inhibition at 1 µM (human Kv1.3): 62%
- inhibition at 1 µM (hKv1.5): 62.4%

Compound: CCc1ccc(S(=O)(=O)N(Cc2ccccc2)c2ccc(C(=O)N3CCN(c4ccccc4)CC3)cc2)cc1 [Example 42, N-Benzyl-4-ethyl-N-[4-(4-phenyl-piperazine-1-carbonyl)-phenyl]-benzenesulfonamide]
- inhibition at 1 µM (human Kv1.3): 76%
- inhibition at 1 µM (hKv1.5): 66.4%

Compound: Cc1ccc(CN(c2ccc(C(=O)N3CCN(c4ccccc4)CC3)cc2)S(=O)(=O)c2cn(C)cn2)cc1 [Example 43, 1-Methyl-1H-imidazole-4-sulfonic acid (4-methyl-benzyl)-[4-(4-phenyl-piperazine-1-carbonyl)-phenyl]-amide]
- inhibition at 1 µM (human Kv1.3): 78%
- inhibition at 1 µM (hKv1.5): 46.4%

Compound: Cn1cnc(S(=O)(=O)N(Cc2cccc(F)c2)c2ccc(C(=O)N3CCN(c4ccccc4)CC3)cc2)c1 [Example 44, 1-Methyl-1H-imidazole-4-sulfonic acid (3-fluoro-benzyl)-[4-(4-phenyl-piperazine-1-carbonyl)-phenyl]-amide]
- inhibition at 1 µM (human Kv1.3): 76%
- inhibition at 1 µM (hKv1.5): 43.6%

Compound: Cc1nn(C)cc1S(=O)(=O)N(Cc1ccccc1)c1ccc(C(=O)N2CCN(c3ccccc3)CC2)cc1 [Example 46, 1,3-Dimethyl-1H-pyrazole-4-sulfonic acid benzyl-[4-(4-phenyl-piperazine-1-carbonyl)-phenyl]-amide]
- inhibition at 1 µM (human Kv1.3): 66%
- inhibition at 1 µM (hKv1.5): 62.9%

Compound: Cc1nc(C)c(S(=O)(=O)N(Cc2ccccc2)c2ccc(C(=O)N3CCN(c4ccccc4)CC3)cc2)s1 [Example 48, 2,4-Dimethyl-thiazole-5-sulfonic acid benzyl-[4-(4-phenyl-piperazine-1-carbonyl)-phenyl]-amide]
- inhibition at 1 µM (human Kv1.3): 79%
- inhibition at 1 µM (hKv1.5): 49.3%

Compound: Cc1cc(C(=O)N2CCN(c3ccccc3)CC2)ccc1N(Cc1ccccc1)S(=O)(=O)c1cn(C)cn1 [Example 49, 1-Methyl-1H-imidazole-4-sulfonic acid benzyl-[2-methyl-4-(4-phenyl-piperazine-1-carbonyl)-phenyl]-amide]
- inhibition at 1 µM (human Kv1.3): 76%
- inhibition at 1 µM (hKv1.5): 50%

Compound: Cn1cnc(S(=O)(=O)N(Cc2ccccc2)c2ccc(C(=O)N3CCN(c4ccccc4)CC3)cc2F)c1 [Example 50, 1-Methyl-1H-imidazole-4-sulfonic acid benzyl-[2-fluoro-4-(4-phenyl-piperazine-1-carbonyl)-phenyl]-amide]
- inhibition at 1 µM (human Kv1.3): 69%
- inhibition at 1 µM (hKv1.5): 56.8%

Compound: COc1cccc(CN(c2ccc(C(=O)N3CCN(c4ccccc4)CC3)cc2)S(=O)(=O)c2ccccc2)c1OC [Example 51, N-(2,3-Dimethoxy-benzyl)-N-[4-(4-phenyl-piperazine-1-carbonyl)-phenyl]-benzenesulfonamide]
- inhibition at 1 µM (human Kv1.3): 42%
- inhibition at 1 µM (hKv1.5): 57.5%

Compound: Cc1cc(N(Cc2ccccc2)S(=O)(=O)c2ccccc2)ccc1C(=O)N1CCN(c2ccccc2)CC1 [Example 52, N-Benzyl-N-[3-methyl-4-(4-phenyl-piperazine-1-carbonyl)-phenyl]-benzenesulfonamide]
- inhibition at 1 µM (human Kv1.3): 67%
- inhibition at 1 µM (hKv1.5): 93.6%

Compound: O=C(c1ccc(N(Cc2ccccc2)S(=O)(=O)c2ccccc2)c(F)c1)N1CCN(c2ccccc2)CC1 [Example 53, N-Benzyl-N-[2-fluoro-4-(4-phenyl-piperazine-1-carbonyl)-phenyl]-benzenesulfonamide]
- inhibition at 1 µM (human Kv1.3): 42%
- inhibition at 1 µM (hKv1.5): 93.8%

Compound: COc1cc(N(Cc2ccccc2)S(=O)(=O)c2ccccc2)ccc1C(=O)N1CCN(c2ccccc2)CC1 [Example 54, N-Benzyl-N-[3-methoxy-4-(4-phenyl-piperazine-1-carbonyl)-phenyl]-benzenesulfonamide]
- inhibition at 1 µM (human Kv1.3): 92%
- inhibition at 1 µM (hKv1.5): 89.6%

Compound: O=C(c1ccc(N(Cc2ccccc2)S(=O)(=O)c2ccccc2)cc1)N1CCc2ccccc2C1 [Example 55, N-Benzyl-N-[4-(3,4-dihydro-1H-isoquinoline-2-carbonyl)-phenyl]-benzenesulfonamide]
- inhibition at 1 µM (human Kv1.3): 81%
- inhibition at 1 µM (hKv1.5): 50.1%

Compound: COc1ccc(C2CCCN(C(=O)c3ccc(N(Cc4ccc(Cl)cc4)S(=O)(=O)c4ccccc4)cc3)C2)cc1 (stereo not shown) [Example 57, N-(4-Chloro-benzyl)-N-{4-[3-(4-methoxy-phenyl)-piperidine-1-carbonyl]-phenyl}-benzenesulfonamide]
- inhibition at 1 µM (human Kv1.3): 47%
- inhibition at 1 µM (hKv1.5): 45.2%
